According to patent US8952024B2, “Herbicidal pyrimidone derivatives” (E I du Pont de Nemours and Company, priority 2009, dated 2015):

Tests used:
Test in all cases: Test B pre-/postemergence plant response
Type in all cases: in vivo
[1] = test system: yellow nutsedge (Cyperus esculentus)
Excerpt: (§1) Seeds of plant species selected from blackgrass (Alopecurus myosuroides), downy bromegrass (Bromus tectorum), green foxtail (Setaria viridis), Italian ryegrass (Lolium multiflorum), wheat (Triticum aestivum), wild oat (Avena fatua), deadnettle (henbit deadnettle, Lamium amplexicaule), galium (catchweed bedstraw, Galium aparine), bermudagrass (Cynodon dactylon), Surinam grass (Brachiaria decumbens), cocklebur (Xanthium strumarium), corn (Zea mays), large crabgrass (Digitaria sanguinalis), woolly cupgrass (Eriochloa villosa), giant foxtail (Setaria faberii), goosegrass (Eleusine indica), johnsongrass (Sorghum halepense), kochia (Kochia scoparia), lambsquarters (Chenopodium album), morningglory (Ipomoea coccinea), nightshade (eastern black nightshade, Solanum ptycanthum), yellow nutsedge (Cyperus esculentus), pigweed (Amaranthus retroflexus), ragweed (common ragweed, Ambrosia elatior), Russian thistle (Salsola kali), soybean (Glycine max), sunflower (common oilseed sunflower, Helianthus annuus) and velvetleaf (Abutilon theophrasti) were planted into a blend of loam soil and sand and treated preemergence with test compounds formulated in a non-phytotoxic solvent mixture which included a surfactant.
(§2) At the same time, plants selected from these crop and weed species and also winter barley (Hordeum vulgare), canarygrass (Phalaris minor), chickweed (Stellaria media) and windgrass (Apera spica-venti) were planted in pots containing Redi-Earth® planting medium (Scotts Company, 14111 Scottslawn Road, Marysville, Ohio 43041) comprising spaghnum peat moss, vermiculite, wetting agent and starter nutrients and treated with postemergence applications of some of the test chemicals formulated in the same manner. Plants ranged in height from 2 to 18 cm (1- to 4-leaf stage) for postemergence treatments.
(§3) Treated plants and controls were maintained in a greenhouse for 13 to 15 days, after which time all treated plants were visually evaluated and compared to controls. Plant response ratings, summarized in Table B, are based on a scale of 0 to 100 where 0 is no effect and 100 is complete control. A dash (-) response means no test result.

[2] = test system: blackgrass (Alopecurus myosuroides)
Excerpt: as §1, §2, §3

[3] = test system: woolly cupgrass (Eriochloa villosa)
Excerpt: as §1, §2, §3

[4] = test system: large crabgrass (Digitaria sanguinalis)
Excerpt: as §1, §2, §3

[5] = test system: johnsongrass (Sorghum halepense)
Excerpt: as §1, §2, §3

[6] = test system: velvetleaf (Abutilon theophrasti)
Excerpt: as §1, §2, §3

[7] = test system: Italian ryegrass (Lolium multiflorum)
Excerpt: as §1, §2, §3

wild oat (Avena fatua) = test system: wild oat (Avena fatua)
Excerpt: as §1, §2, §3

[8] = 250 g ai/ha, Preemergence, 0 to 100 scale
[9] = Postemergence, 31 g ai/ha, scale 0 to 100 (0 no effect, 100 complete control)
[10] = Postemergence, 62 g ai/ha, scale 0 (no effect) to 100 (complete control), 13 to 15 days
[11] = Postemergence, 125 g ai/ha, visual rating after 13 to 15 days, scale 0 (no effect) to 100 (complete control)
[12] = Postemergence, 250 g ai/ha, scale 0 to 100
[13] = Preemergence, 31 g ai/ha, scale 0 to 100 (0 no effect, 100 complete control)
[14] = Preemergence, 62 g ai/ha, scale 0 to 100, 0 no effect, 100 complete control
[15] = Preemergence, 125 g ai/ha, 0 to 100 scale

Structure (SMILES): O=C1CCCC(O)=C1C(=O)c1cnc(-c2ccccc2)n(-c2ccc(F)cc2)c1=O [Compound 24]
- Plant response rating, Nutsedge, Yellow [1, 8]: 90
- Plant response rating, Nutsedge, Yellow [1, 9]: 20
- Plant response rating, Nutsedge, Yellow [1, 10]: 30
- Plant response rating, Nutsedge, Yellow [1, 11]: 30
- Nutsedge, Yellow plant response rating [1, 12]: 70
- Plant response rating, Nutsedge, Yellow [1, 13]: 30
- Plant response rating, Nutsedge, Yellow [1, 14]: 50
- Nutsedge, Yellow plant response rating [1, 15]: 85
- Plant response rating, Blackgrass [2, 8]: 10
- Plant response rating, Blackgrass [2, 9]: 5
- Plant response rating, Blackgrass [2, 10]: 10
- Plant response rating, Blackgrass [2, 11]: 40
- Blackgrass plant response rating [2, 12]: 50
- Plant response rating, Blackgrass [2, 13]: 0
- Plant response rating, Blackgrass [2, 14]: 0
- Blackgrass plant response rating [2, 15]: 0
- Plant response rating, Cupgrass, Woolly [3, 8]: 90
- Plant response rating, Cupgrass, Woolly [3, 9]: 80
- Plant response rating, Cupgrass, Woolly [3, 10]: 80
- Plant response rating, Cupgrass, Woolly [3, 11]: 95
- Cupgrass, Woolly plant response rating [3, 12]: 95
- Plant response rating, Cupgrass, Woolly [3, 13]: 5
- Plant response rating, Cupgrass, Woolly [3, 14]: 70
- Cupgrass, Woolly plant response rating [3, 15]: 85
- Plant response rating, Crabgrass, Large [4, 8]: 100
- Plant response rating, Crabgrass, Large [4, 9]: 70
- Plant response rating, Crabgrass, Large [4, 10]: 75
- Plant response rating, Crabgrass, Large [4, 11]: 95
- Crabgrass, Large plant response rating [4, 12]: 100
- Plant response rating, Crabgrass, Large [4, 13]: 90
- Plant response rating, Crabgrass, Large [4, 14]: 98
- Crabgrass, Large plant response rating [4, 15]: 100
- Plant response rating, Johnsongrass [5, 8]: 90
- Plant response rating, Johnsongrass [5, 9]: 60
- Plant response rating, Johnsongrass [5, 10]: 60
- Plant response rating, Johnsongrass [5, 11]: 70
- Johnsongrass plant response rating [5, 12]: 80
- Plant response rating, Johnsongrass [5, 13]: 20
- Plant response rating, Johnsongrass [5, 14]: 85
- Johnsongrass plant response rating [5, 15]: 90
- Plant response rating, Velvetleaf [6, 8]: 100
- Plant response rating, Velvetleaf [6, 9]: 75
- Plant response rating, Velvetleaf [6, 10]: 90
- Plant response rating, Velvetleaf [6, 11]: 98
- Velvetleaf plant response rating [6, 12]: 98
- Plant response rating, Velvetleaf [6, 13]: 98
- Plant response rating, Velvetleaf [6, 14]: 100
- Velvetleaf plant response rating [6, 15]: 100
- Plant response rating, Ryegrass, Italian [7, 8]: 10
- Plant response rating, Ryegrass, Italian [7, 9]: 0
- Plant response rating, Ryegrass, Italian [7, 10]: 5
- Plant response rating, Ryegrass, Italian [7, 11]: 40
- Ryegrass, Italian plant response rating [7, 12]: 50
- Plant response rating, Ryegrass, Italian [7, 13]: 0
- Plant response rating, Ryegrass, Italian [7, 14]: 0
- Ryegrass, Italian plant response rating [7, 15]: 10
- Plant response rating, Oat, Wild (wild oat (Avena fatua); [8]): 80
- Plant response rating, Oat, Wild (wild oat (Avena fatua); [9]): 40
- Plant response rating, Oat, Wild (wild oat (Avena fatua); [10]): 50
- Plant response rating, Oat, Wild (wild oat (Avena fatua); [11]): 60
- Oat, Wild plant response rating (wild oat (Avena fatua); [12]): 80
- Plant response rating, Oat, Wild (wild oat (Avena fatua); [13]): 0
- Plant response rating, Oat, Wild (wild oat (Avena fatua); [14]): 0
- Oat, Wild plant response rating (wild oat (Avena fatua); [15]): 0
